Results on 24 compounds are retold here after US20250115597A1, “TYK2 INHIBITORS AND COMPOSITIONS AND METHODS THEREOF” (LYNK PHARMACEUTICALS CO. LTD., priority 2021, published 2025).

T1 sequence (P29597 whole entry P760L): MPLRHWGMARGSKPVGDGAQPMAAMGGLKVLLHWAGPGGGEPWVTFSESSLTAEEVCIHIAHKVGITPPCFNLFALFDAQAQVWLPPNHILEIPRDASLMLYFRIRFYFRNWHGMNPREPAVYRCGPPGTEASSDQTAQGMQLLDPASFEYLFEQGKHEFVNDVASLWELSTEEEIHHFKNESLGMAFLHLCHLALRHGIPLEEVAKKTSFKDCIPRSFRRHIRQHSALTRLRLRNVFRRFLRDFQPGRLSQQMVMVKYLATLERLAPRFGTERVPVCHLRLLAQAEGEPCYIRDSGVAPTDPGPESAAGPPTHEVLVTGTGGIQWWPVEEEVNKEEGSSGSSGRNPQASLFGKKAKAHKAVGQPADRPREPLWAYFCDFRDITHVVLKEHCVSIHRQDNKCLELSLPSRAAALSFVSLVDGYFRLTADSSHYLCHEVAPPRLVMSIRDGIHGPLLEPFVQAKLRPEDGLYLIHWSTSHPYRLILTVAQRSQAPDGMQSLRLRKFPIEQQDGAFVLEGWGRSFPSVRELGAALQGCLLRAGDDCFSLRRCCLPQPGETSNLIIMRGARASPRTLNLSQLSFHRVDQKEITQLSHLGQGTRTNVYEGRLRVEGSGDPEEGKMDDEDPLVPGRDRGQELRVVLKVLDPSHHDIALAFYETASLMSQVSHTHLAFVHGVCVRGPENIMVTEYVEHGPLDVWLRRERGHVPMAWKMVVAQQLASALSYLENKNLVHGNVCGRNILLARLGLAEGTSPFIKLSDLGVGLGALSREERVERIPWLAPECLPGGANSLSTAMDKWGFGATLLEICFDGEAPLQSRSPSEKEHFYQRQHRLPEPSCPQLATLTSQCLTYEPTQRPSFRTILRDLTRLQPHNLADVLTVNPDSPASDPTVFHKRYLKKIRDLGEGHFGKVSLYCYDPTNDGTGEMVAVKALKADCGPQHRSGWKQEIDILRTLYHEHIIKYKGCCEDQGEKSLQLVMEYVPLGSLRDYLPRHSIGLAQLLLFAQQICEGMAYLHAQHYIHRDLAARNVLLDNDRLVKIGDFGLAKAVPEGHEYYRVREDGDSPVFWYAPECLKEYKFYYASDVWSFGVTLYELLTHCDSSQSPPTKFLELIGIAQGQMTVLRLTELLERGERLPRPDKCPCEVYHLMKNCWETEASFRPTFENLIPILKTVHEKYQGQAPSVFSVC

The experiment addresses T1, Ba/F3-FL-TYK2-P760L cells (Homo sapiens, UniProt P29597, P760L, cells depend on it).
T1 construct: BaF3-FL-T2P760L (nM)
Kind of experiment: Anti-proliferative assay, Ba/F3-FL-TYK2-P760L cells (Cell-Titer Glo). The format is cell-based. The note with it: 72 h, read-out: BaF3-FL-T2P760L IC50. How it is done: Anti-Proliferative Assay Dimerization domain of Tel protein fused with JAK kinase domain was permanently transduced into Ba/F3 cells, whose proliferation is dependent on JAK activity in the absence of IL-3 induction. These engineered Ba/F3 cells (Ba/F3-FL-TYK2-[…], Ba/F3-TEL-TYK2 and Ba/F3-TEL-JAK2) were used to monitor JAK inhibitory activities of the compounds in the cellular. […] Cells were seeded at 2000/well of white flat bottom 96-well plates. The well containing medium only was used as background control. After 24 h growth, cells were treated with compounds. The test compounds were dissolved in DMSO to a stock concentration of 20 mM. 3-fold serially diluted compounds for 9 concentrations with top concentration of 20 μM was added into the each well. […] The cells continued to grow at 37° C. in 5% CO2 for 72 h after compound treatment. The viability was measured by cellular ATP determination using the Cell-Titer Glo luciferase reagent (Promega). The Luminescence value was recorded by a multi-label reader Envision (PerkinElmer).
For `[2H]C([2H])([2H])NC(=O)c1cnc(NC(=O)C2CC2)cc1Nc1csc2cnn(C(C)C(F)(F)F)c(=O)c12` (single isomer, unassigned) [Example 185A, (R*)-6-(cyclopropanecarboxamido)-N-(methyl-d3)-4-((4-oxo-5-(1,1,1-trifluoropropan-2-yl)-4,5-dihydrothieno[2,3-d]pyridazin-3-yl)amino)nicotinamide], the GI50 came out at 205 nM.

`[2H]C([2H])([2H])NC(=O)c1cnc(NC(=O)C2CC2)cc1Nc1csc2cnn(C(C)C(F)(F)F)c(=O)c12` (single isomer, unassigned) [Example 185B, (S*)-6-(Cyclopropanecarboxamido)-N-(methyl-d3)-4-((4-oxo-5-(1,1,1-trifluoropropan-2-yl)-4,5-dihydrothieno[2,3-d]pyridazin-3-yl)amino)nicotinamide]: the GI50 turned out to be 912 nM. Turning to `[2H]C([2H])([2H])NC(=O)c1cnc(NC(=O)C2CC2)cc1Nc1cn(C)c2ccn(C(C)C(F)(F)F)c(=O)c12` (single isomer, unassigned) [Example 190B, (S*)-6-(Cyclopropanecarboxamido)-N-(methyl-d3)-4-((1-methyl-4-oxo-5-(1,1,1-trifluoropropan-2-yl)-4,5-dihydro-1H-pyrrolo[3,2-c]pyridin-3-yl)amino)nicotinamide], the GI50 was determined as 327 nM. As for `CNC(=O)c1cnc(NC(=O)C2CC2)cc1Nc1cn(CCOC)c2ccn([C@H](C)C(F)(F)F)c(=O)c12` (single isomer, unassigned) [Example 201A, (R*)-6-(Cyclopropanecarboxamido)-4-((1-(2-methoxyethyl)-4-oxo-5-(1,1,1-trifluoropropan-2-yl)-4,5-dihydro-1H-pyrrolo[3,2-c]pyridin-3-yl)amino)-N-(methyl-d3)nicotinamide], the GI50 is 241 nM.

On to `CNC(=O)c1cnc(NC(=O)C2CC2)cc1Nc1cn(C)c2ncn([C@H](C)C(F)(F)F)c(=O)c12` (single isomer, unassigned) [Example 234A, (R*)-6-(cyclopropanecarboxamido)-N-(methyl-d3)-4-((7-methyl-4-oxo-3-(1,1,1-trifluoropropan-2-yl)-4,7-dihydro-3H-pyrrolo[2,3-d]pyrimidin-5-yl)amino)nicotinamide], for which the GI50 stood at 96.2 nM. Under `CNC(=O)c1cnc(NC(=O)C2CC2)cc1Nc1cn(C)c2ncn([C@@H](C)C(F)(F)F)c(=O)c12` (single isomer, unassigned) [Example 234B, (S*)-6-(cyclopropanecarboxamido)-N-(methyl-d3)-4-((7-methyl-4-oxo-3-(1,1,1-trifluoropropan-2-yl)-4,7-dihydro-3H-pyrrolo[2,3-d]pyrimidin-5-yl)amino)nicotinamide] stands 599 nM; under `CCn1cc(Nc2cc(NC(=O)C3CC3)ncc2C(=O)NC)c2c(=O)n([C@H](C)C(F)(F)F)cnc21` (single isomer, unassigned) [Example 254A, (R*)-6-(cyclopropanecarboxamido)-4-((7-ethyl-4-oxo-3-(1,1,1-trifluoropropan-2-yl)-4,7-dihydro-3H-pyrrolo[2,3-d]pyrimidin-5-yl)amino)-N-(methyl-d3)nicotinamide], 179 nM.

Take `CCn1cc(Nc2cc(NC(=O)C3CC3)ncc2C(=O)NC)c2c(=O)n([C@@H](C)C(F)(F)F)cnc21` (single isomer, unassigned) [Example 254B, (S*)-6-(cyclopropanecarboxamido)-4-((7-ethyl-4-oxo-3-(1,1,1-trifluoropropan-2-yl)-4,7-dihydro-3H-pyrrolo[2,3-d]pyrimidin-5-yl)amino)-N-(methyl-d3)nicotinamide]: the GI50 amounted to 934 nM. Under `CNC(=O)c1cnc(NC(=O)C2CC2)nc1Nc1cn(C)c2ccn(C)c(=O)c12` [Example 1, 2-(Cyclopropanecarboxamido)-4-((1,5-dimethyl-4-oxo-4,5-dihydro-1H-pyrrolo[3,2-c]pyridin-3-yl)amino)-N-methylpyrimidine-5-carboxamide] stands 483 nM; under `[2H]C([2H])([2H])NC(=O)c1cnc(Nc2cnn(C3CC3)c2)nc1Nc1cccc(-c2ncn(C)n2)c1OC` [Example 2, 2-[(1-Cyclopropylpyrazol-4-yl)amino]-4-[2-methoxy-3-(1-methyl-1,2,4-triazol-3-yl)anilino]-N-(trideuteromethyl)pyrimidine-5-carboxamide], 199 nM. Under `[2H]C([2H])([2H])NC(=O)c1cnc(Nc2ccc(F)cc2)nc1Nc1cn(C)c2ccn(C)c(=O)c12` [Example 4, 4-((1,5-Dimethyl-4-oxo-4,5-dihydro-1H-pyrrolo[3,2-c]pyridin-3-yl)amino)-2-((4-fluorophenyl)amino)-N-(methyl-d3)pyrimidine-5-carboxamide] stands 548 nM; under `CNC(=O)c1cnc(Nc2ccc(F)cn2)nc1Nc1cccc(-c2ncn(C)n2)c1OC` [Example 5, 2-((5-Fluoropyridin-2-yl)amino)-4-((2-methoxy-3-(1-methyl-1H-1,2,4-triazol-3-yl)phenyl)amino)-N-methylpyrimidine-5-carboxamide], 1350 nM. On to `CNC(=O)c1cnc(Nc2ccc(F)cc2)nc1Nc1cccc(OC2CCOCC2)c1OC` [Example 6, 2-((4-Fluorophenyl)amino)-4-((2-methoxy-3-((tetrahydro-2H-pyran-4-yl)oxy)phenyl)amino)-N-methylpyrimidine-5-carboxamide], for which the GI50 was 897 nM. As to `CNC(=O)c1cnc(NC(=O)C2CC2)nc1Nc1cccc(OC2CCOCC2)c1OC` [Example 7, 2-(Cyclopropanecarboxamido)-4-((2-methoxy-3-((tetrahydro-2H-pyran-4-yl)oxy)phenyl)amino)-N-methylpyrimidine-5-carboxamide], the GI50 amounted to 8020 nM.

For the compound `CCn1ccc2c(c(Nc3nc(Nc4ccc(F)cc4F)ncc3C(=O)NC)cn2C)c1=O` [Example 9, 2-((2,4-Difluorophenyl)amino)-4-((5-ethyl-1-methyl-4-oxo-4,5-dihydro-1H-pyrrolo[3,2-c]pyridin-3-yl)amino)-N-methylpyrimidine-5-carboxamide], the GI50 was 740 nM.

Consider `CNC(=O)c1cnc(NC(=O)C2CC2)cc1Nc1cccc(OC2CCOCC2)c1OC` [Example 13, 6-(Cyclopropanecarboxamido)-4-((2-methoxy-3-((tetrahydro-2H-pyran-4-yl)oxy)phenyl)amino)-N-methylnicotinamide], for which the GI50 worked out at 6410 nM. Under `CNC(=O)c1nnc(Nc2ccc(F)cn2)cc1Nc1cccc(OC2CCOCC2)c1OC` [Example 25, 6-((5-Fluoropyridin-2-yl)amino)-4-((2-methoxy-3-((tetrahydro-2H-pyran-4-yl)oxy)phenyl)amino)-N-methylpyridazine-3-carboxamide] stands 7820 nM. Under `CNC(=O)c1nnc(NC(=O)C2CC2)cc1Nc1cccc2cc[nH]c(=O)c12` [Example 26, 6-(Cyclopropanecarboxamido)-N-methyl-4-((1-oxo-1,2-dihydroisoquinolin-8-yl)amino)pyridazine-3-carboxamide] stands greater than 20000 nM; under `[2H]C([2H])([2H])NC(=O)c1cnc(Nc2ccc(F)cc2)nc1Nc1csc2ccn(C)c(=O)c12` [Example 29, 2-((4-Fluorophenyl)amino)-N-(methyl-d3)-4-((5-methyl-4-oxo-4,5-dihydrothieno [3,2-c]pyridin-3-yl)amino) pyrimidine-5-carboxamide], greater than 20000 nM. The same measure for `[2H]C([2H])([2H])NC(=O)c1cnc(Nc2cnn(C3CCOCC3)c2)nc1Nc1cccc(-c2ncn(C)n2)c1OC` [Example 30, 4-((2-Methoxy-3-(1-methyl-1H-1,2,4-triazol-3-yl)phenyl)amino)-N-(methyl-d3)-2-((1-(tetrahydro-2H-pyran-4-yl)-1H-pyrazol-4-yl)amino)pyrimidine-5-carboxamide]: 199 nM. Regarding `[2H]C([2H])([2H])NC(=O)c1cnc(Nc2cnn(C3CCOC3)c2)nc1Nc1cccc(-c2ncn(C)n2)c1OC` (stereo not drawn) [Example 31, 4-((2-Methoxy-3-(1-methyl-1H-1,2,4-triazol-3-yl)phenyl)amino)-N-(methyl-d3)-2-((1-(tetrahydrofuran-3-yl)-1H-pyrazol-4-yl)amino)pyrimidine-5-carboxamide], the GI50 was found to be 303 nM.

As to `CNC(=O)c1nnc2cc1Nc1cc(cc(-c3ncn(C)n3)c1OC)CN(C)Cc1cccc(n1)N2` [Example 32, 10-Methoxy-N,15-dimethyl-11-(1-methyl-1,2,4-triazol-3-yl)-2,4,5,8,15,21-hexazatetracyclo[15.3.1.13,7.19,13]tricosa-1(21),3(23),4,6,9,11,13(22),17,19-nonaene-6-carboxamide], the GI50 was found to be 856 nM. Take `CNC(=O)c1cnc2nc1Nc1cc(cc(-c3ncn(C)n3)c1OC)COCc1cc(cc(C(F)(F)F)c1)N2` [Example 37, 10-Methoxy-N-methyl-11-(1-methyl-1H-1,2,4-triazol-3-yl)-19-(trifluoromethyl)-15-oxa-2,4,8,23-tetraazatetracyclo[15.3.1.1^{3,7}.1^{9,13}]tricosa-1(20),3,5,7(23),9(22),10,12,17(21),18-nonaene-6-carboxamide]: the GI50 was found to be 988 nM. The same measure for `CNC(=O)c1cnc(Nc2ccc(F)cc2)nc1Nc1coc2ccn(C)c(=O)c12` [Example 38, 2-((4-Fluorophenyl)amino)-N-methyl-4-((5-methyl-4-oxo-4,5-dihydrofuro[3,2-c]pyridin-3-yl)amino)pyrimidine-5-carboxamide]: 831 nM.
